According to patent US9309224B2 (Deciphera Pharmaceuticals, LLC, priority 2013, dated 2016):

What was measured:
[1] = molecular target: T1, unphosphorylated c-FMS kinase (uFMS, Seq. ID no. 1) (Homo sapiens, UniProt P07333); assay: uFMS kinase assay (pyruvate kinase/lactate dehydrogenase coupled); type: biochemical; settings: ATP 500 μM
T1 construct: purchased Millipore
T1 sequence (P07333 538-972): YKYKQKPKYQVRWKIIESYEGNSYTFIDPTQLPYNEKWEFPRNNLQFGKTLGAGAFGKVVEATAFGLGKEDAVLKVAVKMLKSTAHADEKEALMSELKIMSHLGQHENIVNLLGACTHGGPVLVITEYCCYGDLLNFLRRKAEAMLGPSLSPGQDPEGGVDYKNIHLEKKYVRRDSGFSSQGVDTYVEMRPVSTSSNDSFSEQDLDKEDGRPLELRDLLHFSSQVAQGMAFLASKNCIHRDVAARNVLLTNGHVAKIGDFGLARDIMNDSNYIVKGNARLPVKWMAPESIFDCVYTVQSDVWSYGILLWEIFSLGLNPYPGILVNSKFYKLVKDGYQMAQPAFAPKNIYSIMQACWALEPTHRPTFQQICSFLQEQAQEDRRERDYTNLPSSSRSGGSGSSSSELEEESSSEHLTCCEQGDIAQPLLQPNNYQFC
Procedure: In this assay, the oxidation of NADH (thus the decrease at A340 nm) was continuously monitored spectrophometrically. The reaction mixture (100 μL) contained FMS (purchased from Millipore) (10 nM), polyE4Y (1 mg/mL), MgCl2 (10 mM), pyruvate kinase (4 units), lactate dehydrogenase (0.7 units), phosphoenol pyruvate (1 mM), NADH (0.28 mM) and ATP (500 μM) in 90 mM Tris buffer containing 0.2% octyl-glucoside and 1% DMSO, pH 7.5. The inhibition reaction was started by mixing serial diluted test compound with the above reaction mixture. The absorption at 340 nm was monitored continuously for 4 hours at 30° C. on Synergy 2 plate reader. The reaction rate was calculated using the 3 to 4 h time frame. Percent inhibition was obtained by comparison of reaction rate with that of a control (i.e. in the absence of test compound). IC50 values were calculated from a series of percent inhibition values determined at a range of inhibitor concentrations using software routines as implemented in the GraphPad Prism software package.

[2] = molecular target: T2, unphosphorylated c-KIT kinase (uKIT, Seq. ID no. 2) (Homo sapiens, UniProt P10721); assay: uKit kinase assay (pyruvate kinase/lactate dehydrogenase coupled); type: biochemical; settings: ATP 2000 μM
T2 construct: uKit with N-terminal GST fusion used for
T2 sequence (P10721 with tags, fused parts or gaps): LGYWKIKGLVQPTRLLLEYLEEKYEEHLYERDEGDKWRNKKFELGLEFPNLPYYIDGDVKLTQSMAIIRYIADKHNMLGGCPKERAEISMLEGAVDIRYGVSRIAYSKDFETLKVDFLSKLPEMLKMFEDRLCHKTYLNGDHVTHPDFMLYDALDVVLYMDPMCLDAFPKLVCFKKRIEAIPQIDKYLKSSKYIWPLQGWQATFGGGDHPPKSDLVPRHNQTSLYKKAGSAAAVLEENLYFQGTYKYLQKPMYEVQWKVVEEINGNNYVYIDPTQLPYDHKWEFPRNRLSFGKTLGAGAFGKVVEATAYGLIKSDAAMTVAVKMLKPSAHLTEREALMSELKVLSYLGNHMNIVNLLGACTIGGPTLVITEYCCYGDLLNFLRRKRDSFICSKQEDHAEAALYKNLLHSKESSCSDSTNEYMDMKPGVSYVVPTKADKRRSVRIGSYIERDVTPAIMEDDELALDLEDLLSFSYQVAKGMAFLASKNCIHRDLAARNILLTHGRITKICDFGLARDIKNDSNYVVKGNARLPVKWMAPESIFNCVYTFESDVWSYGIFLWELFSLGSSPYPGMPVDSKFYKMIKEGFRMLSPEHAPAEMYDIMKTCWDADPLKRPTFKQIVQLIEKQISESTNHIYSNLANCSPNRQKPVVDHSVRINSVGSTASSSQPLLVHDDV
Procedure: In this assay, the oxidation of NADH (thus the decrease at A340 nm) was continuously monitored spectrophometrically. […] The inhibition reaction was started by mixing serial diluted test compound with the above reaction mixture. The absorption at 340 nm was monitored continuously for 4 hours at 30° C. on Synergy 2 plate reader (BioTech).

[3] = molecular target: T3, unphosphorylated PDGFRβ kinase (uPDGFRβ, Seq. ID No. 3) (Homo sapiens, UniProt P09619); assay: Unphosphorylated PDGFRβ kinase assay (pyruvate kinase/lactate dehydrogenase coupled); type: biochemical; settings: ATP 500 μM
T3 construct: purchased DeCode
T3 sequence (P09619 557-1105): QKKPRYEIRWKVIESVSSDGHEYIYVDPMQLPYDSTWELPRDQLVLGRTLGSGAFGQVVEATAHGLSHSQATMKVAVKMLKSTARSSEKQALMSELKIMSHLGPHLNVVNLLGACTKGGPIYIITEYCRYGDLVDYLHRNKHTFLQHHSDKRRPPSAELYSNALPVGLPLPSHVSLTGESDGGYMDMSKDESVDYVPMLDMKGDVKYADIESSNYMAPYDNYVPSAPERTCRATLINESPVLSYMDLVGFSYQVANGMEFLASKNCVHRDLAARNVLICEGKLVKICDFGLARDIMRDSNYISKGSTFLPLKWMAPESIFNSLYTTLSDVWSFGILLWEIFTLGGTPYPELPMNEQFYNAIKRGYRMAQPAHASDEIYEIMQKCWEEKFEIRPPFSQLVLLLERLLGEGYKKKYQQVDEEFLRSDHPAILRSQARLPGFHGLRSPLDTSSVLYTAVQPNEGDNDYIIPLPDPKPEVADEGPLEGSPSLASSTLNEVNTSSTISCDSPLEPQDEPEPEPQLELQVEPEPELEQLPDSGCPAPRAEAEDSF
Excerpt: Unphosyhorylated PDGFRβ (uPDGFRβkinase (Seq. ID No. 3) assay

[4] = system: M-NFS-60 cells; assay: M-NFS-60 cell proliferation assay; type: cell-based; settings: 67 h incubation, resazurin
Procedure: M-NFS-60 Cell Proliferation Assay A serial dilution of test compound was dispensed into a 384-well black clear bottom plate (Corning, Corning, N.Y.). Two thousand five hundred cells were added per well in 50 μL complete growth medium. […] IC50 values were calculated from a series of percent inhibition values determined at a range of inhibitor concentrations using software routines as implemented in the GraphPad Prism software package.

[5] = system: osteoclast precursors; assay: Osteoclast tartrate-resistant acid phosphatase assay; type: cell-based; settings: Osteoclast; 7-14 days, RANKL and M-CSF
[6] = system: c-FMS; assay: cFOS mRNA production in a c-FMS mouse spleen pharmacodynamic model; type: in vivo; settings: out to 8 h post 30 mg/kg single oral dose, read-out: inhibition of cFOS mRNA levels
Procedure: Analysis of cFOS mRNA Production in a c-FMS Mouse Spleen Pharmacodynamic Model To examine the in vivo modulation of FMS activity by compounds of formula I, spleen samples from female DBA/1 mice were collected and analyzed for M-CSF stimulated production of cFOS mRNA. Briefly, six to seven week old female Taconic DBA/1BO J Bom Tac mice were treated with a single oral dose (by gavage) of either vehicle or compound. Plasma and spleen samples are collected from four mice at each timepoint 2, 4, 6, 8, 12, 18, and 24 hours after dosing. Fifteen minutes prior to euthanasia, all mice were injected IV with 1 μg (100 μL fixed volume) of M-CSF. M-CSF, Recombinant Mouse Macrophage Colony Stimulating Factor (36.4 kDa homodimer, ≧98% purity) was obtained from Gibco. All procedures carried out in this experiment were conducted in compliance with all the laws, regulations and guidelines of the National Institutes of Health (NIH). cFOS mRNA levels in spleen extracts were determined using a quantitative reverse transcriptase PCR kit from Life Technologies. Plasma levels of FMS inhibitors were determined by mass spectrometer analysis. The degree of FMS inhibition was correlative to the amount of decrease observed in cFOS mRNA levels in the spleen samples of treated animals compared to vehicle.

[7] = system: U251-luc human glioma carcinoma; assay: U251 intra-cerebro-ventricular implant in mice with fractionated head radiation; type: in vivo, mouse; settings: 30 mg/kg twice daily, 10 days post irradiation, compared to vehicle treated control
Procedure: U251 Intra-Cerebro-Ventricular Implant in Mice To evaluate in vivo anti-cancer activity compounds of formula I in combination with fractionated, localized head radiation, an orthotopic U251-luc (Luc) human glioma carcinoma model in female outbred nu/nu mice was employed. Briefly, U251 cells were obtained from the ATCC and altered to be luciferase expressing. They were grown in RPMI 1640 Media supplemented with 10% FBS and 1% PSG. The growth environment was maintained in an incubator with a 5% CO2 atmosphere at 37° C. Female Harlan Nude mice (Hsd:AthymicNude-Fox1nu) 8-9 weeks old were used in this study. Test animals were implanted intracranially with U251-luc (LucmCherry) cells. Briefly, animals were injected subcutaneously with 5 mg/kg carprofen and anesthetized using 2% isoflurane in air. The animals were then secured in a stereotaxic frame (ASIinstruments, Inc.) and a hole drilled 2 mm right lateral, 1 mm anterior to the coronal suture. The cell suspension (stored on wet ice) was mixed thoroughly and drawn up into a 50 μL syringe. The syringe needle was centered over the burr hole and lowered 3 mm into the brain and retracted 1 mm to form a “reservoir” for the deposition of the cell suspension. […] Images were analyzed using Living Image (Xenogen, Alameda, Calif.) software. The BLI signal in the brain was calculated with a fixed area ROI to estimate the tumor burden. […]

Question: With CN1CCN(C(=O)Nc2cc(Oc3ccc(NC(=O)NC(=O)C(C)(C)C)nc3)ccn2)CC1 [Example 45, 4-methyl-N-(4-((6-(3-pivaloylureido)pyridin-3-yl)oxy)pyridin-2-yl)piperazine-1-carboxamide] as the compound, how does the IC50 [1] read?
Answer: < 0.01 µM

Question: What about the IC50 [2] of the same compound?
Answer: 0.1 to 1 µM

Question: And the IC50 [3]?
Answer: 0.1 to 1 µM

Question: And the IC50 [4]?
Answer: < 0.01 µM

Question: What about the IC50 [5] of the same compound?
Answer: < 0.01 µM

Question: What about the inhibition in vivo at 30 mg/kg [6] of the same compound?
Answer: ≥ 50%

Question: What about the “reduction in tumor re-growth” value [7] of the same compound?
Answer: 80%
